The results in this text go back to patent US10266526B2, “Substituted 1,2,3-triazoles as SMYD inhibitors for treating cancer” (EPIZYME, INC., priority 2014, dated 2019).

SMILES strings stand for the structures.

In the first assay the target is SMYD3 (Homo sapiens (Human), UniProt Q9H7B4). Description: SMYD3 biochemical assay (SMYD3 enzyme assay on MEKK2 protein substrate, 3H-SAM scintillation proximity assay). The conditions noted are these: read-out: SMYD3 Biochem IC50. The method in brief: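 Detection used scintillation proximity beads to capture ³H-methylated GST-MEKK2 after quench with 100 uM final cold SAM. The reaction was started by SAM/MEKK2 addition after a 30 min RT compound–enzyme preincubation. Enzyme was tag-free full-length human SMYD3 from E. coli, in buffer of 25 mM Tris-Cl pH 8.0, 1 mM TCEP, 0.005% BSG, 0.005% Tween 20.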
Chain of SMYD3 (Q9H7B4 whole entry): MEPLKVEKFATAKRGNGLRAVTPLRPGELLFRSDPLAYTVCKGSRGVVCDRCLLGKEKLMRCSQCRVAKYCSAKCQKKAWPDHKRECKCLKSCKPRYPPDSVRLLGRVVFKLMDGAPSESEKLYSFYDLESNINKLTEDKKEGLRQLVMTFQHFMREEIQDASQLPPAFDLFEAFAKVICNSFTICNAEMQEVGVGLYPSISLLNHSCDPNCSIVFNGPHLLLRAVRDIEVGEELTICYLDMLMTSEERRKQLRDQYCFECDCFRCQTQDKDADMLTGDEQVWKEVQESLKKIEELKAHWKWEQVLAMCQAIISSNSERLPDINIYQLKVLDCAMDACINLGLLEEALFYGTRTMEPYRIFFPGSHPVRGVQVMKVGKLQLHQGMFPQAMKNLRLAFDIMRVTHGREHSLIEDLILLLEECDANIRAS
On the technique in general: In a scintillation proximity assay essentially only radioactivity close to the scintillant gives light.
For the compound `Cc1n[nH]c(C)c1C(=O)N[C@H]1CC[C@H](N)CC1` [compound 182, N-((1r,4r)-4-aminocyclohexyl)-3,5-dimethyl-1H-pyrazole-4-carboxamide], the IC50 is over 100 µM.

In the case of `Cc1ncc(C(=O)NC(C)C2CCN(C(=O)[C@H](C)N)CC2)cn1` (stereo partly drawn) [compound 183, N-(1-(1-(L-alanyl)piperidin-4-yl)ethyl)-2-methylpyrimidine-5-carboxamide], the IC50 was over 100 µM.

Regarding `Cc1ncc(C(=O)N[C@H]2CC[C@H](NC(=O)CCN)CC2)cn1` [compound 184, N-((1r,4r)-4-(3-aminopropanamido)cyclohexyl)-2-methylpyrimidine-5-carboxamide], the IC50 amounted to 35.8 µM.

On to `Cc1cnc(C(=O)NC(C)C2CCN(C(=O)[C@H](C)N)CC2)cn1` (stereo partly drawn) [compound 185, N-(1-(1-(L-alanyl)piperidin-4-yl)ethyl)-5-methylpyrazine-2-carboxamide], for which the IC50 is over 100 µM.

`Cc1cnc(C(=O)N[C@H]2CC[C@H](N)CC2)cn1` [compound 186, N-((1r,4r)-4-aminocyclohexyl)-5-methylpyrazine-2-carboxamide]: the concentration for half-maximal inhibition (IC50) was over 100 µM.

Turning to `CC(NC(=O)c1ccnc(N)c1)C1CCN(C(=O)[C@H](C)N)CC1` (stereo partly drawn) [compound 187, N-(1-(1-(L-alanyl)piperidin-4-yl)ethyl)-2-aminoisonicotinamide], the IC50 was over 100 µM.

In the case of `CC(NC(=O)c1nccnc1N)C1CCN(C(=O)[C@H](C)N)CC1` (stereo partly drawn) [compound 188, N-(1-(1-(L-alanyl)piperidin-4-yl)ethyl)-3-aminopyrazine-2-carboxamide], the IC50 was over 100 µM.

Regarding `CC(NC(=O)c1ccc(-c2ccccc2)cc1)C1CCN(C(=O)[C@H](C)N)CC1` (stereo partly drawn) [compound 189, N-(1-(1-(L-alanyl)piperidin-4-yl)ethyl)-[1,1′-biphenyl]-4-carboxamide], the IC50 was over 100 µM.

Consider `NS(=O)(=O)c1ccc(C(=O)N[C@H]2CC[C@H](N)CC2)cc1` [compound 190, N-((1r,4r)-4-aminocyclohexyl)-4-sulfamoylbenzamide], for which the IC50 is over 100 µM.

For the compound `CC(NC(=O)c1ccc(O)nn1)C1CCN(C(=O)[C@H](C)N)CC1` (stereo partly drawn) [compound 191, N-(1-(1-(L-alanyl)piperidin-4-yl)ethyl)-6-hydroxypyridazine-3-carboxamide], the IC50 was over 100 µM.

With `N[C@H]1CC[C@H](NC(=O)c2ccc3[nH]ccc3c2)CC1` [compound 192, N-((1r,4r)-4-aminocyclohexyl)-1H-indole-5-carboxamide], the IC50 was over 100 µM.

With `CC(NC(=O)c1ccc2nc[nH]c2c1)C1CCN(C(=O)[C@H](C)N)CC1` (stereo partly drawn) [compound 193, N-(1-(1-(L-alanyl)piperidin-4-yl)ethyl)-1H-benzo[d]imidazole-6-carboxamide], the IC50 was over 100 µM.

With `CC(NC(=O)c1ccc2cnccc2c1)C1CCN(C(=O)[C@H](C)N)CC1` (stereo partly drawn) [compound 194, N-(1-(1-(L-alanyl)piperidin-4-yl)ethyl)isoquinoline-6-carboxamide], the IC50 was over 100 µM.

Consider `NCCC(=O)N[C@H]1CC[C@H](NC(=O)Cc2c[nH]c3ccccc23)CC1` [compound 195, N-((1r,4r)-4-(2-(1H-indol-3-yl)acetamido)cyclohexyl)-3-aminopropanamide], for which the IC50 was over 100 µM.

For the compound `NCCC(=O)N[C@H]1CC[C@H](NC(=O)c2nccc3ccccc23)CC1` [compound 196, N-((1r,4r)-4-(3-aminopropanamido)cyclohexyl)isoquinoline-1-carboxamide], the IC50 was over 100 µM.

For the compound `N[C@H]1CC[C@H](NC(=O)c2nccc3ccccc23)CC1` [compound 197, N-((1r,4r)-4-aminocyclohexyl)isoquinoline-1-carboxamide], the IC50 was over 100 µM.

Regarding `CC(NC(=O)c1cc2cc(F)ccc2[nH]1)C1CCN(C(=O)[C@H](C)N)CC1` (stereo partly drawn) [compound 198, N-(1-(1-(L-alanyl)piperidin-4-yl)ethyl)-5-fluoro-1H-indole-2-carboxamide], the IC50 was found to be 41.7 µM.

Take `CC(NC(=O)c1cc(O)nc2ccccc12)C1CCN(C(=O)[C@H](C)N)CC1` (stereo partly drawn) [compound 199, N-(1-(1-(L-alanyl)piperidin-4-yl)ethyl)-2-hydroxyquinoline-4-carboxamide]: the IC50 was over 100 µM.

Regarding `NCCC(=O)N[C@H]1CC[C@H](NC(=O)c2cc(O)nc3ccccc23)CC1` [compound 200, N-((1r,4r)-4-(3-aminopropanamido)cyclohexyl)-2-hydroxyquinoline-4-carboxamide], the IC50 is 23.3 µM.

As for `N[C@H]1CC[C@H](NC(=O)c2cc(O)nc3ccccc23)CC1` [compound 201, N-((1r,4r)-4-aminocyclohexyl)-2-hydroxyquinoline-4-carboxamide], the IC50 is over 100 µM.

As for `CC(NC(=O)c1ccc2c(c1)CCCC2)C1CCN(C(=O)[C@H](C)N)CC1` (stereo partly drawn) [compound 202, N-(1-(1-(L-alanyl)piperidin-4-yl)ethyl)-5,6,7,8-tetrahydronaphthalene-2-carboxamide], the IC50 stood at 59 µM.

The same assay, now with this note: read-out: SMYD3 Biochem IC50 (μM)*.
For `N[C@H]1CC[C@H](NC(=O)c2ccc3cc[nH]c3c2)CC1` [compound 160, N-((1r,4r)-4-aminocyclohexyl)-1H-indole-6-carboxamide], the IC50 is over 100 µM.

In the case of `N[C@H]1CC[C@H](NC(=O)c2ccc3nc[nH]c3c2)CC1` [compound 161, N-((1r,4r)-4-aminocyclohexyl)-1H-benzo[d]imidazole-6-carboxamide], the IC50 was over 100 µM.

On to `CC(NC(=O)c1ccc2ccccc2n1)C1CCN(C(=O)[C@H](C)N)CC1` (stereo partly drawn) [compound 162, N-(1-(1-(L-alanyl)piperidin-4-yl)ethyl)quinoline-2-carboxamide], for which the IC50 was over 100 µM.

Consider `NCCC(=O)N[C@H]1CC[C@H](NC(=O)c2ccc3ccccc3n2)CC1` [compound 163, N-((1r,4r)-4-(3-aminopropanamido)cyclohexyl)quinoline-2-carboxamide], for which the IC50 was over 100 µM.

With `N[C@H]1CC[C@H](NC(=O)c2ccc3ccccc3n2)CC1` [compound 164, N-((1r,4r)-4-aminocyclohexyl)quinoline-2-carboxamide], the IC50 is over 100 µM.

In the case of `NCCC(=O)N[C@H]1CC[C@H](NC(=O)c2ccc3cnccc3c2)CC1` [compound 165, N-((1r,4r)-4-(3-aminopropanamido)cyclohexyl)isoquinoline-6-carboxamide], the IC50 came to 15.5 µM.

For `N[C@H]1CC[C@H](NC(=O)c2ccc3cnccc3c2)CC1` [compound 166, N-((1r,4r)-4-aminocyclohexyl)isoquinoline-6-carboxamide], the IC50 is 20.7 µM.

Regarding `CC(NC(=O)Cc1c[nH]c2ccccc12)C1CCN(C(=O)[C@H](C)N)CC1` (stereo partly drawn) [compound 167, N-(1-(1-(L-alanyl)piperidin-4-yl)ethyl)-2-(1H-indol-3-yl)acetamide], the IC50 is over 100 µM.

Take `N[C@H]1CC[C@H](NC(=O)Cc2c[nH]c3ccccc23)CC1` [compound 168, N-((1r,4r)-4-aminocyclohexyl)-2-(1H-indol-3-yl)acetamide]: the IC50 was over 100 µM.

For the compound `COc1ccc2cc(C(C)C(=O)N[C@H]3CC[C@H](NC(=O)CCN)CC3)ccc2c1` (stereo partly drawn) [compound 169, 3-amino-N-((1r,4r)-4-(2-(6-methoxynaphthalen-2-yl)propanamido)cyclohexyl)propanamide], the IC50 is over 100 µM.

With `COc1ccc2cc(C(C)C(=O)N[C@H]3CC[C@H](N)CC3)ccc2c1` (stereo partly drawn) [compound 170, N-((1r,4r)-4-aminocyclohexyl)-2-(6-methoxynaphthalen-2-yl)propanamide], the IC50 amounted to 76.4 µM.

In the case of `CC(NC(=O)c1nccc2ccccc12)C1CCN(C(=O)[C@H](C)N)CC1` (stereo partly drawn) [compound 171, N-(1-(1-(L-alanyl)piperidin-4-yl)ethyl)isoquinoline-1-carboxamide], the IC50 was over 100 µM.

As to `N[C@H]1CC[C@H](NC(=O)c2n[nH]c3ccccc23)CC1` [compound 172, N-((1r,4r)-4-aminocyclohexyl)-1H-indazole-3-carboxamide], the IC50 is over 100 µM.

Take `NCC(=O)N[C@H]1CC[C@H](NC(=O)c2ccc3c(c2)CC(=O)N3)CC1` [compound 174, N-((1r,4r)-4-(2-aminoacetamido)cyclohexyl)-2-oxoindoline-5-carboxamide]: the IC50 worked out at 0.63 µM.

For `CC(N)C(=O)N[C@H]1CC[C@H](NC(=O)c2ccc3c(c2)CC(=O)N3)CC1` (stereo partly drawn) [compound 175, N-((1r,4r)-4-(2-aminopropanamido)cyclohexyl)-2-oxoindoline-5-carboxamide], the IC50 was 0.42 µM.

With `C[C@H](N)C(=O)N1CCC(C)(CNC(=O)c2ccc3c(c2)CC(=O)N3)CC1` [compound 176, N-((1-(L-alanyl)-4-methylpiperidin-4-yl)methyl)-2-oxoindoline-5-carboxamide], the IC50 was found to be 3.52 µM.

As for `C[C@@H](N)C(=O)N1CC[C@H](CNC(=O)c2ccc3c(c2)CC(=O)N3)C1` [compound 177, N-(((R)-1-(D-alanyl)pyrrolidin-3-yl)methyl)-2-oxoindoline-5-carboxamide], the IC50 was determined as 19.8 µM.

For `CN(C(=O)CCN)C1CCC(NC(=O)c2ccc3c(c2)CC(=O)N3)CC1` (stereo not drawn) [compound 178, N-(4-(3-amino-N-methylpropanamido)cyclohexyl)-2-oxoindoline-5-carboxamide], the IC50 was determined as 3.4 µM.

As for `Cc1nc(-c2ccc(C(=O)NC(C)C3CCN(C(=O)[C@H](C)N)CC3)cc2)no1` (stereo partly drawn) [compound 179, N-(1-(1-(L-alanyl)piperidin-4-yl)ethyl)-4-(5-methyl-1,2,4-oxadiazol-3-yl)benzamide], the IC50 is over 100 µM.

`Cc1n[nH]c(C)c1C(=O)NC(C)C1CCN(C(=O)[C@H](C)N)CC1` (stereo partly drawn) [compound 180, N-(1-(1-(L-alanyl)piperidin-4-yl)ethyl)-3,5-dimethyl-1H-pyrazole-4-carboxamide]: the IC50 is over 100 µM.

Turning to `Cc1n[nH]c(C)c1C(=O)N[C@H]1CC[C@H](NC(=O)CCN)CC1` [compound 181, N-((1r,4r)-4-(3-aminopropanamido)cyclohexyl)-3,5-dimethyl-1H-pyrazole-4-carboxamide], the IC50 is over 100 µM.

By IC50 is commonly meant the point on the concentration scale where inhibition reaches its midpoint.
